Laboratory results as given in publication PMC11995724, “Antibiotic target discovery by integrated phenotypic and activity-based profiling of electrophilic fragments” (Cell chemical biology, 2025).
Where a name gives a salt, the structure may show the parent alone.

Test: in vitro
Conditions: human, hek293t cells

| Structure (SMILES) | viability at 48 h, 25 µM [%] |
| --- | --- |
| C=CC(=O)N(CC)CC(=O)N1CCc2c(ncn2CC)C1 [2-H08, N-ethyl-N-(2-{1-ethyl-1H,4H,5H,6H,7H-imidazo[4,5-c]pyridin-5-yl}-2-oxoethyl)prop-2-enamide] | 84.8 |
| CCc1ccc(NC(=O)C(C#N)=Cc2cccnc2)cc1 [8-G04, 2-cyano-N-(4-ethylphenyl)-3-(pyridin-3-yl)prop-2-enamide] | 86.1 |
| N#CC(=Cc1cccc(O)c1)C(=O)Nc1ccc(N2CCOCC2)cc1 [8-I14, 2-cyano-3-(3-hydroxyphenyl)-N-[4-(morpholin-4-yl)phenyl]prop-2-enamide] | 82.5 |
| O=C(CCl)Nc1ccc(Cl)cc1F [4-E03, 2-chloro-N-(4-chloro-2-fluorophenyl)acetamide] | 0.433 |
| COc1cccc(CN(C(=O)CCl)C23CC4CC(CC(C4)C2)C3)c1 [5-E05, N-(adamantan-1-yl)-2-chloro-N-[(3-methoxyphenyl)methyl]acetamide] | 0.151 |
| C=CC(=O)N(Cc1cn(C)nc1C)c1ccc2c(c1)OCCO2 [1-P13, N-(2,3-dihydro-1,4-benzodioxin-6-yl)-N-[(1,3-dimethyl-1H-pyrazol-4-yl)methyl]prop-2-enamide] | 81.5 |
| CCC(C)(C)C1CCc2c(sc(NC(=O)CCl)c2C#N)C1 (stereo not drawn) [5-A05, 2-chloro-N-[3-cyano-6-(2-methylbutan-2-yl)-4,5,6,7-tetrahydro-1-benzothiophen-2-yl]acetamide] | -0.0335 |
| CC(Cl)C(=O)N[C@H](CC(N)=O)c1cccc(Cl)c1 (stereo partly drawn) [7-O09, (3R)-3-(3-chlorophenyl)-3-(2-chloropropanamido)propanamide] | 102 |
| CN(C)C(=O)c1csc(C(=O)CCl)c1 [10-I07, 5-(2-chloroacetyl)-N,N-dimethylthiophene-3-carboxamide] | 56.6 |
| CN(CC(=O)Nc1ccc(Cl)c(C(F)(F)F)c1)C(=O)CCl [4-E19, 2-chloro-N-({[4-chloro-3-(trifluoromethyl)phenyl]carbamoyl}methyl)-N-methylacetamide] | 0.379 |
| COc1ccc([N+](=O)[O-])cc1NC(=O)CCl [4-P17, 2-chloro-N-(2-methoxy-5-nitrophenyl)acetamide] | 0.714 |
| C=CC(=O)N1CCCC1c1cc(C)no1 (stereo not drawn) [3-G12, 1-[2-(3-methyl-1,2-oxazol-5-yl)pyrrolidin-1-yl]prop-2-en-1-one] | 91.7 |
| O=C(CCl)NC1CCN(Cc2ccccc2)C1 (stereo not drawn) [6-G18, N-(1-benzylpyrrolidin-3-yl)-2-chloroacetamide hydrochloride] | 3.85 |
| N#CC(=Cc1ccc(Cl)c(Cl)c1)C(=O)NCc1ccccc1 [8-B07, N-benzyl-2-cyano-3-(3,4-dichlorophenyl)prop-2-enamide] | 105 |
| C=CC(=O)N(C)CC(=O)N1CCc2cc(OC)c(OC)cc2C1C (stereo not drawn) [3-C04, N-[2-(6,7-dimethoxy-1-methyl-1,2,3,4-tetrahydroisoquinolin-2-yl)-2-oxoethyl]-N-methylprop-2-enamide] | 84.6 |
| C=CC(=O)Nc1ccc(-n2cnnn2)c(F)c1 [1-I17, N-[3-fluoro-4-(1H-1,2,3,4-tetrazol-1-yl)phenyl]prop-2-enamide] | 39.9 |
| COc1ccc(CN2CCN(C(=O)CCl)CC2)cc1F [4-P18, 2-chloro-1-{4-[(3-fluoro-4-methoxyphenyl)methyl]piperazin-1-yl}ethan-1-one hydrochloride] | 0.482 |
| Cc1ccc(C=C(C#N)C(=O)NC2CCCC2)cc1C [8-E12, 2-cyano-N-cyclopentyl-3-(3,4-dimethylphenyl)prop-2-enamide] | 54.9 |
| CCC(C)C1CN(Cc2ccc(C)nc2)CCN1C(=O)C(C)Cl (stereo not drawn) [7-O16, 1-[2-(butan-2-yl)-4-[(6-methylpyridin-3-yl)methyl]piperazin-1-yl]-2-chloropropan-1-one] | 74.9 |
| C=CC(=O)N(C)Cc1nc2c(n1C)CCCC2 [2-K22, N-methyl-N-[(1-methyl-4,5,6,7-tetrahydro-1H-1,3-benzodiazol-2-yl)methyl]prop-2-enamide] | 87.1 |
| C=CC(=O)N(C)C1CCN(c2cnccn2)CC1 [1-B12, N-methyl-N-[1-(pyrazin-2-yl)piperidin-4-yl]prop-2-enamide] | 70.1 |
| O=C(c1ccccc1)c1cc(Cl)ccc1N1C(=O)C=CC1=O [10-M16, 1-(2-benzoyl-4-chlorophenyl)-2,5-dihydro-1H-pyrrole-2,5-dione] | 48.7 |
| C=CC(=O)NCc1ccc(C(=O)N2CCCCC(SC)C2)cc1 (stereo not drawn) [2-B20, N-({4-[3-(methylsulfanyl)azepane-1-carbonyl]phenyl}methyl)prop-2-enamide] | 57.3 |
| Cc1ccc(NC(=O)C(C#N)=Cc2cccc(C(F)(F)F)c2)c(C)c1 [8-H11, 2-cyano-N-(2,4-dimethylphenyl)-3-[3-(trifluoromethyl)phenyl]prop-2-enamide] | 75 |
| C=CC(=O)Nc1ccc2ccn(CCN(C)C)c2c1 [1-L21, N-{1-[2-(dimethylamino)ethyl]-1H-indol-6-yl}prop-2-enamide] | 113 |
| Cc1ncccc1NC(=O)[C@H](C)NC(=O)C(C)Cl (stereo partly drawn) [6-D09, 2-chloro-N-[(1S)-1-[(2-methylpyridin-3-yl)carbamoyl]ethyl]propanamide] | 99.8 |

| Structure (SMILES) | viability at 48 h, 25 µM [%] |
| --- | --- |
| CCCCNC(=O)C(C#N)=Cc1ccc2c(c1)OCCO2 [9-G11, N-butyl-2-cyano-3-(2,3-dihydro-1,4-benzodioxin-6-yl)prop-2-enamide] | 106 |
| C=CC(=O)N1CCC(C(=O)Nc2c[nH]c(=O)c(C)c2)CC1 [3-J05, N-(5-methyl-6-oxo-1,6-dihydropyridin-3-yl)-1-(prop-2-enoyl)piperidine-4-carboxamide] | 51.5 |
| C=CC(=O)N(CC)CC(=O)N1CCc2[nH]nc(C(F)(F)F)c2C1 [3-A14, N-ethyl-N-{2-oxo-2-[3-(trifluoromethyl)-1H,4H,5H,6H,7H-pyrazolo[4,3-c]pyridin-5-yl]ethyl}prop-2-enamide] | 64.2 |
| O=C(CCl)N(Cc1ccccc1)Cc1ccc(F)cc1 [5-I06, N-benzyl-2-chloro-N-[(4-fluorophenyl)methyl]acetamide] | 0.621 |
| C=CC(=O)N(C)CC(=O)N1CCC(C)(c2nc(C)no2)CC1 [2-B22, N-methyl-N-{2-[4-methyl-4-(3-methyl-1,2,4-oxadiazol-5-yl)piperidin-1-yl]-2-oxoethyl}prop-2-enamide] | 57.9 |
| CC(Cl)C(=O)N1CCC(c2nc3cc(F)ccc3s2)CC1 (stereo not drawn) [6-J18, 2-chloro-1-[4-(5-fluoro-1,3-benzothiazol-2-yl)piperidin-1-yl]propan-1-one] | 78.9 |
| CCC(NC(=O)CCl)c1cccc(OC)n1 (stereo not drawn) [7-D08, 2-chloro-N-[1-(6-methoxypyridin-2-yl)propyl]acetamide] | 1.69 |
| C=CC(=O)N1CCC(C(=O)Nc2cc(Cl)ccc2SCC)CC1 [1-E06, N-[5-chloro-2-(ethylsulfanyl)phenyl]-1-(prop-2-enoyl)piperidine-4-carboxamide] | 111 |
| CC(Cl)C(=O)NCCc1cccs1 (stereo not drawn) [4-D14, 2-chloro-N-[2-(thiophen-2-yl)ethyl]propanamide] | 111 |
| Cc1cccc(NC(=O)CCl)c1C [4-D04, 2-chloro-N-(2,3-dimethylphenyl)acetamide] | 1.62 |
| O=C(CCl)N1CCCCc2ccc([N+](=O)[O-])cc21 [5-I18, 2-chloro-1-(8-nitro-2,3,4,5-tetrahydro-1H-1-benzazepin-1-yl)ethan-1-one] | 1.56 |
| Cc1ccc(NC(=O)CN2CCN(C(=O)CCl)CC2)cc1 [4-D16, 2-[4-(2-chloroacetyl)piperazin-1-yl]-N-(4-methylphenyl)acetamide hydrochloride] | 0.854 |
| C=CC(=O)Nc1cccc(C(=O)C(F)F)c1 [1-G14, N-[3-(2,2-difluoroacetyl)phenyl]prop-2-enamide] | 50.4 |
| O=C(CCl)c1c[nH]c2ccccc12 [10-B05, 2-chloro-1-(1H-indol-3-yl)ethan-1-one] | 111 |
| CC(Cl)C(=O)NCCc1c[nH]c2ncccc12 (stereo not drawn) [7-C12, 2-chloro-N-(2-{1H-pyrrolo[2,3-b]pyridin-3-yl}ethyl)propanamide] | 88.4 |
| O=C(CCl)NCCCN1CCCCCC1=O [5-J10, 2-chloro-N-[3-(2-oxoazepan-1-yl)propyl]acetamide] | 119 |
| C=CC(=O)N(C)CC(=O)NCc1nc2cc(C)ccc2n1C [2-B14, N-({[(1,5-dimethyl-1H-1,3-benzodiazol-2-yl)methyl]carbamoyl}methyl)-N-methylprop-2-enamide] | 37.9 |
| C=CC(=O)NCCc1nnc(-c2ccccc2)o1 [3-J09, N-[2-(5-phenyl-1,3,4-oxadiazol-2-yl)ethyl]prop-2-enamide] | 70.8 |
| CN(CCOc1ccc(Cl)cc1)C(=O)CCl [5-D16, 2-chloro-N-[2-(4-chlorophenoxy)ethyl]-N-methylacetamide] | 0.377 |
| O=C1C=CC(=O)N1c1ccc(F)c(Cl)c1 [10-D15, 1-(3-chloro-4-fluorophenyl)-2,5-dihydro-1H-pyrrole-2,5-dione] | 79.2 |
| O=C(CCl)c1cn(-c2cccc(C(F)(F)F)c2)nn1 [10-C09, 2-chloro-1-{1-[3-(trifluoromethyl)phenyl]-1H-1,2,3-triazol-4-yl}ethan-1-one] | 2.55 |
| N#CC(=Cc1ccccc1)C(=O)Nc1ccc(N2CCCCC2)cc1 [8-E15, 2-cyano-3-phenyl-N-[4-(piperidin-1-yl)phenyl]prop-2-enamide] | 64.7 |
| CC1CN(C(=O)c2ccc(NC(=O)C(C)Cl)cc2)CC(C)O1 (stereo not drawn) [7-E22, 2-chloro-N-[4-(2,6-dimethylmorpholine-4-carbonyl)phenyl]propanamide] | 79.1 |
| C=CC(=O)N1CCC(C(=O)N2Cc3ccccc3C[C@H]2C(N)=O)CC1 [3-C19, (3S)-2-[1-(prop-2-enoyl)piperidine-4-carbonyl]-1,2,3,4-tetrahydroisoquinoline-3-carboxamide] | 29.6 |
| C=CC(=O)N1CCC(C(=O)NCc2cn3ccc(C)nc3n2)CC1 [3-D12, N-({7-methylimidazo[1,2-a]pyrimidin-2-yl}methyl)-1-(prop-2-enoyl)piperidine-4-carboxamide] | 75.3 |
